Assay results: the PolyMetriX glass transition set

| SMILES | glass transition temperature [°C] |
| --- | --- |
| *=NP(=NP(=NC(=*)Oc1ccc(C(=O)OC)cc1)(Oc1ccc(C(=O)OC)cc1)Oc1ccc(C(=O)OC)cc1)(Oc1ccc(C(=O)OC)cc1)Oc1ccc(C(=O)OC)cc1 (repeat unit) | 52.00 |
| *=NP(=NP(=NC(=*)Oc1ccc(C(C)(C)C)cc1)(Oc1ccc(C(C)(C)C)cc1)Oc1ccc(C(C)(C)C)cc1)(Oc1ccc(C(C)(C)C)cc1)Oc1ccc(C(C)(C)C)cc1 (repeat unit) | 74.00 |
| *=NP(=NP(=NC(=*)Oc1ccc(C(C)(C)c2ccccc2)cc1)(Oc1ccc(C(C)(C)c2ccccc2)cc1)Oc1ccc(C(C)(C)c2ccccc2)cc1)(Oc1ccc(C(C)(C)c2ccccc2)cc1)Oc1ccc(C(C)(C)c2ccccc2)cc1 (repeat unit) | 55.00 |
| *=NP(=NP(=NC(=*)Oc1ccccc1)(Oc1ccccc1)Oc1ccccc1)(Oc1ccccc1)Oc1ccccc1 (repeat unit) | 18.00 |
| *=NP(=NP(=NC(=*)Oc1ccccc1C(F)(F)F)(Oc1ccccc1C(F)(F)F)Oc1ccccc1C(F)(F)F)(Oc1ccccc1C(F)(F)F)Oc1ccccc1C(F)(F)F (repeat unit) | -20.00 |
| *CC(*)(C)C(=O)NC(=O)OC(C)COc1c(Br)cc(S(=O)(=O)c2cc(Br)c(OCC(C)O)c(Br)c2)cc1Br (repeat unit) | 45.00 |
| *CC(*)(C)C(=O)NC(=O)OCCOc1c(Br)cc(S(=O)(=O)c2cc(Br)c(OCCO)c(Br)c2)cc1Br (repeat unit) | 110.00 |
| *CC(*)(C)C(=O)NC(=O)OCCOc1ccc(S(=O)(=O)c2ccc(OCCO)cc2)cc1 (repeat unit) | 131.00 |
| *CC(*)(C)C(=O)NC(=O)Oc1c(Br)cc(S(=O)(=O)c2cc(Br)c(O)c(Br)c2)cc1Br (repeat unit) | 116.00 |
| *CC(*)(C)C(=O)Nc1ccc(C(=O)/C=C/c2ccc(OC)cc2)cc1 (repeat unit) | 35.00 |
| *CC(*)(C)C(=O)OC(COc1cccc2ccccc12)COc1cccc2ccccc12 (repeat unit) | 80.00 |
| *CC(*)(C)C(=O)OC(F)(F)C(F)(F)C(F)(F)C(F)(F)C(F)(F)C(F)(F)C(F)(F)C(F)(F)F (repeat unit) | 49.00 |
| *CC(*)(C)C(=O)OC1(C)C2CC3CC(C2)CC1C3 (repeat unit) | 165.00 |
| *CC(*)(C)C(=O)OC1(C)CCOC(=O)C1 (repeat unit) | 110.00 |
| *CC(*)(C)C(=O)OC1CC(C)CCC1C(C)C (repeat unit) | 147.00 |
| *CC(*)(C)C(=O)OC1CC2CC1C1C3CCC(C3)C21 (repeat unit) | 199.00 |
| *CC(*)(C)C(=O)OC1CCC(C)CC1 (repeat unit) | 109.00 |
| *CC(*)(C)C(=O)OC1CCC1 (repeat unit) | 119.00 |
| *CC(*)(C)C(=O)OC1CCCC1 (repeat unit) | 75.00 |
| *CC(*)(C)C(=O)OC1CCCCC1C (repeat unit) | 85.00 |
| *CC(*)(C)C(=O)OC1COC(CP(=O)(OCC)OCC)OC1 (repeat unit) | 101.50 |
| *CC(*)(C)C(=O)OCC#CO[Si](C)(C)C (repeat unit) | 57.00 |
| *CC(*)(C)C(=O)OCC#N (repeat unit) | 91.00 |
| *CC(*)(C)C(=O)OCC(=O)N1CCCC1 (repeat unit) | 144.00 |

| SMILES | glass transition temperature [°C] |
| --- | --- |
| *CC(*)(C)C(=O)OCC(=O)c1ccccc1 (repeat unit) | 92.50 |
| *CC(*)(C)C(=O)OCC(F)(F)C(F)(F)C(F)(F)C(F)(F)C(F)(F)C(F)F (repeat unit) | 12.50 |
| *CC(*)(C)C(=O)OCC(F)(F)C(F)(F)C(F)(F)C(F)F (repeat unit) | 47.00 |
| *CC(*)(C)C(=O)OCC(F)(F)C(F)(F)F (repeat unit) | 77.00 |
| *CC(*)(C)C(=O)OCC(O)C1CC(C)(c2ccccc2)C1 (repeat unit) | 105.00 |
| *CC(*)(C)C(=O)OCC(O)CO (repeat unit) | 84.40 |
| *CC(*)(C)C(=O)OCC1(C)COC(C)(C)OC1 (repeat unit) | 108.00 |
| *CC(*)(C)C(=O)OCC1CC(NC(=O)OC(C)(C)C)CN1C(=O)OC(C)(C)C (repeat unit) | 127.00 |
| *CC(*)(C)C(=O)OCC1CCCO1 (repeat unit) | 105.00 |
| *CC(*)(C)C(=O)OCC1COC(c2ccccc2)O1 (repeat unit) | 130.00 |
| *CC(*)(C)C(=O)OCC1COCCOCCOCCOCCOC1 (repeat unit) | 31.00 |
| *CC(*)(C)C(=O)OCCC(F)(F)C(F)(F)C(F)(F)C(F)(F)C(F)(F)C(F)(F)C(F)(F)C(F)(F)F (repeat unit) | 47.00 |
| *CC(*)(C)C(=O)OCCC1CCN(CCCCCCOc2ccc(/N=N/c3ccc([N+](=O)[O-])cc3)cc2)CC1 (repeat unit) | 27.00 |
| *CC(*)(C)C(=O)OCCCC1CCCCC1 (repeat unit) | 60.00 |
| *CC(*)(C)C(=O)OCCCCC(F)(F)C(F)(F)C(F)(F)C(F)(F)C(F)(F)C(F)(F)F (repeat unit) | 23.00 |
| *CC(*)(C)C(=O)OCCCCC1CCCCC1 (repeat unit) | 43.00 |
| *CC(*)(C)C(=O)OCCCCCC(=O)Oc1ccc(OC(=O)c2ccc(OC)cc2)cc1 (repeat unit) | 40.00 |
| *CC(*)(C)C(=O)OCCCCCC(=O)Oc1ccc(OC(=O)c2ccc(OCCCC)cc2)cc1 (repeat unit) | 40.00 |
| *CC(*)(C)C(=O)OCCCCCCC(F)(F)C(F)(F)C(F)(F)C(F)(F)F (repeat unit) | 23.00 |
| *CC(*)(C)C(=O)OCCCCCCCC (repeat unit) | -11.00 |
| *CC(*)(C)C(=O)OCCCCCCCCCCCC (repeat unit) | -47.90 |
| *CC(*)(C)C(=O)OCCCCCCCCCCCOc1ccc(/C=N/c2ccc(C#N)cc2)cc1 (repeat unit) | 23.00 |
| *CC(*)(C)C(=O)OCCCCCCCCCCCn1c2ccccc2c2ccccc21 (repeat unit) | 31.00 |
| *CC(*)(C)C(=O)OCCCCCCCCCCOc1ccc(/N=N/c2ccc(C#N)cc2)cc1 (repeat unit) | 51.00 |

| SMILES | glass transition temperature [°C] |
| --- | --- |
| *CC(*)(C)C(=O)OCCCCCCCCCCOc1ccc(C#Cc2cc(C)c(/C=C/c3ccncc3)cc2C)cc1 (repeat unit) | 65.40 |
| *CC(*)(C)C(=O)OCCCCCCCCCCOc1ccc(OC(=O)c2ccc(OC)cc2)cc1 (repeat unit) | 21.00 |
| *CC(*)(C)C(=O)OCCCCCCCCCCOc1ccc(OC(=O)c2ccc(OCCCCCC)cc2)cc1 (repeat unit) | 41.00 |
| *CC(*)(C)C(=O)OCCCCCCCCCCOc1ccc(OC(=O)c2ccc(OCCCCCCCC)cc2)cc1 (repeat unit) | 12.00 |
| *CC(*)(C)C(=O)OCCCCCCCCCCOc1ccc2cc(C(=O)Oc3ccccc3)ccc2c1 (repeat unit) | 24.00 |
| *CC(*)(C)C(=O)OCCCCCCCCCCn1c2ccccc2c2cc(/C=C(\C#N)c3ccc([N+](=O)[O-])cc3)ccc21 (repeat unit) | 40.00 |
| *CC(*)(C)C(=O)OCCCCCCCCCCn1c2ccccc2c2cc(/C=C/C3=C(C#N)C(=C(C#N)C#N)OC3(C)C)ccc21 (repeat unit) | 55.00 |
| *CC(*)(C)C(=O)OCCCCCCCCCCn1c2ccccc2c2cc(/N=N/c3ccc([N+](=O)[O-])cc3)ccc21 (repeat unit) | 36.00 |
| *CC(*)(C)C(=O)OCCCCCCCCCCn1c2ccccc2c2cc(/N=N/c3ccc([N+](=O)[O-])cc3[N+](=O)[O-])ccc21 (repeat unit) | 60.00 |
| *CC(*)(C)C(=O)OCCCCCCCCCOc1ccc2cc(C(=O)Oc3ccccc3)ccc2c1 (repeat unit) | 18.00 |
| *CC(*)(C)C(=O)OCCCCCCCCOc1ccc(/N=N/c2ccc(C#N)cc2)cc1 (repeat unit) | 35.00 |
| *CC(*)(C)C(=O)OCCCCCCCCOc1ccc(C(=O)Oc2ccc(C(=O)/C=C/c3c(C)c4ccccc4n3CCCC)cc2)cc1 (repeat unit) | 69.00 |
| *CC(*)(C)C(=O)OCCCCCCN(C)c1ccc(/N=N/c2ccc(S(C)(=O)=O)cc2)cc1 (repeat unit) | 100.00 |
| *CC(*)(C)C(=O)OCCCCCCN1CCN(c2ccc(/N=N/c3ccc(C=C(C#N)C#N)cc3)cc2)CC1 (repeat unit) | 83.00 |
| *CC(*)(C)C(=O)OCCCCCCOc1ccc(C(=O)Oc2ccc(/N=N/c3ccc(Br)cc3)c3ccccc23)cc1 (repeat unit) | 46.00 |
| *CC(*)(C)C(=O)OCCCCCCOc1ccc(C(=O)Oc2ccc(/N=N/c3ccc(F)cc3)c3ccccc23)cc1 (repeat unit) | 42.00 |
| *CC(*)(C)C(=O)OCCCCCCOc1ccc(C(=O)Oc2ccc(/N=N/c3ccc(I)cc3)c3ccccc23)cc1 (repeat unit) | 40.00 |
| *CC(*)(C)C(=O)OCCCCCCOc1ccc(C(=O)Oc2ccc(/N=N/c3ccccc3)c3ccccc23)cc1 (repeat unit) | 46.00 |
| *CC(*)(C)C(=O)OCCCCCCOc1ccc(C(=O)Oc2ccc(C(=O)/C=C/c3c(C)c4ccccc4n3C)cc2)cc1 (repeat unit) | 98.00 |
| *CC(*)(C)C(=O)OCCCCCCOc1ccc(C(=O)Oc2ccc(C(=O)/C=C/c3c(C)c4ccccc4n3CCCC)cc2)cc1 (repeat unit) | 85.00 |
| *CC(*)(C)C(=O)OCCCCCCOc1ccc(C(=O)Oc2ccc(C)cc2)cc1 (repeat unit) | 45.00 |
| *N=P(N=P(N=S(*)(=O)NCCCC)(NCCCC)NCCCC)(NCCCC)NCCCC (repeat unit) | -16.00 |
| *N=P(N=P(N=S(*)(=O)NCCCCCC)(NCCCCCC)NCCCCCC)(NCCCCCC)NCCCCCC (repeat unit) | -18.00 |
